According to publication PMC6261661 (ACS chemical neuroscience, 2018):
Square brackets hold non-standard residues; d marks the D form. Peptide text beside a SMILES is read from it. * marks the point of attachment. dBip = N[C@H](Cc1ccc(-c2ccccc2)cc1)C(=O)O; 1Nal = N[C@@H](Cc1cccc2ccccc12)C(=O)O; 2Nal = N[C@@H](Cc1ccc2ccccc2c1)C(=O)O; d1Nal = N[C@H](Cc1cccc2ccccc12)C(=O)O; d2Nal = N[C@H](Cc1ccc2ccccc2c1)C(=O)O; Bta = N[C@@H](Cc1csc2ccccc12)C(=O)O; 3Pal = N[C@@H](Cc1cccnc1)C(=O)O; Tic = O=C(O)[C@@H]1Cc2ccccc2CN1; 2Thi = N[C@@H](Cc1cccs1)C(=O)O; Octanoyl = CCCCCCCC(=O)*

Key:
Type in all cases: cell-based
mMC5R = mMC5R (Mus musculus, UniProt P41149); assay: CRE/β-galactosidase reporter gene bioassay, agonist activity at mMC5R; conditions: for mMC5R pharmacology in words: comparisons are to reference peptide 1; for mMC5R Fold Diff.: fold difference in EC50 vs peptide 1, negative prefix = more potent than 1; for mMC5R fold less potent than peptide 1: less potent than 1
Chain of mMC5R (P41149 whole entry): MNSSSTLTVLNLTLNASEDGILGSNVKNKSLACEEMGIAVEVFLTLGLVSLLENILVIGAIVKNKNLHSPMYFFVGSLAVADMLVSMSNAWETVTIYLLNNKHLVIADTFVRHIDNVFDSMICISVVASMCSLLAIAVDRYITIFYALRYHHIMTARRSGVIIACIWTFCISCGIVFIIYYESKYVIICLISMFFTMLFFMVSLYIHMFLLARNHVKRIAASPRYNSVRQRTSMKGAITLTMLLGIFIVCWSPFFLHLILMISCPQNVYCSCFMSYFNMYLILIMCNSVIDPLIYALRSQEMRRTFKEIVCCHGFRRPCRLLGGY

mMC1R = mMC1R (Mus musculus, UniProt Q01727); assay: CRE/β-galactosidase reporter gene bioassay, agonist activity at mMC1R; conditions: for mMC1R Fold Diff: fold difference in EC50 vs peptide 1, negative prefix = more potent than 1; for EC50: mMC1R EC50, agonist, HEK-293 cells stably expressing receptor, ±SEM; for mMC1R fold decrease in potency compared to compound 1: less potent than 1
Chain of mMC1R (Q01727 whole entry): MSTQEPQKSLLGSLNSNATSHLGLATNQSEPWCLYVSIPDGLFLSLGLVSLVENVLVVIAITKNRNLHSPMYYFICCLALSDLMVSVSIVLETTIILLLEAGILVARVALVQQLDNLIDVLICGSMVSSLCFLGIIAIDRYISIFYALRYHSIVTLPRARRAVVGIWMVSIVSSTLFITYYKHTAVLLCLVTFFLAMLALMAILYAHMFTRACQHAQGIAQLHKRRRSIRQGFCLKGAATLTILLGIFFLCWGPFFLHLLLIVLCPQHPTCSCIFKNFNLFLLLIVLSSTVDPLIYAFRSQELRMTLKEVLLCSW

mMC3R = mMC3R (Mus musculus, UniProt P33033); assay: cell-based; conditions: for mMC3R Fold Diff: fold difference in EC50 vs peptide 1, negative prefix = more potent than 1; for mMC3R relative percentage of stimulation at 100 μM: 100000.0
Chain of mMC3R (P33033 whole entry): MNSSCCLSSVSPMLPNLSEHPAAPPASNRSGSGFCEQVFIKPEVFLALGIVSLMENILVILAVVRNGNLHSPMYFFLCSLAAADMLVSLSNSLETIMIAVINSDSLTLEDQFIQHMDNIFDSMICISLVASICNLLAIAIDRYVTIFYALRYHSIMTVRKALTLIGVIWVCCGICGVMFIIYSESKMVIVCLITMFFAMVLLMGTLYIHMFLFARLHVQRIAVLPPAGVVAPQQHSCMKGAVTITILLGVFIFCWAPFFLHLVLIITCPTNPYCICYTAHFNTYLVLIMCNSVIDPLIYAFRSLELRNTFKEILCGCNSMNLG

mMC4R = mMC4R (Mus musculus, UniProt P56450); assay: CRE/β-galactosidase reporter gene bioassay, agonist activity at mMC4R; conditions: for mMC4R Fold Diff.: fold difference in EC50 vs peptide 1, negative prefix = more potent than 1; for mMC4R fold less potent than compound 1: less potent than 1
Chain of mMC4R (P56450 whole entry): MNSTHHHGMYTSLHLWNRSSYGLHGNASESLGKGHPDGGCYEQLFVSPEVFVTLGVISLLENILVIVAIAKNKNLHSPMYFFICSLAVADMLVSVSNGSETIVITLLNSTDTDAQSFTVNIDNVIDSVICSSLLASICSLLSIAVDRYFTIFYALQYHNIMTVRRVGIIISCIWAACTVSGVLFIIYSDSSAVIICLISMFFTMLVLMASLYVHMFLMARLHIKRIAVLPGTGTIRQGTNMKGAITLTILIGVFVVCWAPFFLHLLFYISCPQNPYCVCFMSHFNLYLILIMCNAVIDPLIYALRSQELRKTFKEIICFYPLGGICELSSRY

Compound	EC50 (mMC5R)	mMC1R Fold Diff (mMC1R)	EC50 (mMC1R)	mMC1R fold difference in EC50, more potent than reference peptide 1 (mMC1R; more potent agonist than 1)	EC50 (mMC3R)	mMC3R Fold Diff (mMC3R)	mMC3R fold difference, more potent agonist than Ac-His-DPhe-Arg-Trp-NH2 (mMC3R; more potent than 1)	EC50 (mMC4R)	mMC5R pharmacology in words (mMC5R)	mMC4R Fold Diff. (mMC4R)	mMC5R Fold Diff. (mMC5R)	mMC5R fold less potent than peptide 1 (mMC5R)	mMC1R pharmacology in words (mMC1R; comparisons are to reference peptide 1)	mMC3R relative percentage of stimulation at 100 μM (mMC3R)	mMC1R fold decrease in potency compared to compound 1 (mMC1R)	mMC4R fold less potent than compound 1 (mMC4R)
CC(=O)N[C@@H](Cc1cnc[nH]1)C(=O)N[C@H](Cc1ccccc1)C(=O)N[C@@H](CCCN=C(N)N)C(=O)N[C@@H](Cc1c[nH]c2ccccc12)C(N)=O [Peptide 1, Ac-His-DPhe-Arg-Trp-NH2, reference compound]	0.0053 ± 0.0016 µM	–	–	–	–	–	–	–	–	–	–	–	–	–	–	–
CCCCCCCC(=O)N[C@@H](Cc1c[nH]cn1)C(=O)N[C@H](Cc1ccccc1)C(=O)N[C@@H](CCCNC(=N)N)C(=O)N[C@@H](Cc1csc2ccccc12)C(N)=O [Peptide 3, Octanoyl-His-DPhe-Arg-3Bal-NH2] (Octanoyl-H[dF]R[Bta]-NH2)	0.0024 ± 0.0005 µM	−10	0.0146 ± 0.0039 µM	10 fold	0.052 ± 0.007 µM	−11	11 fold	0.013 ± 0.003 µM	equipotent	–	–	–	–	–	–	–
CCCCCCCC(=O)N[C@@H](Cc1c[nH]cn1)C(=O)N[C@H](Cc1ccccc1)C(=O)N[C@@H](CCCNC(=N)N)C(=O)N1Cc2ccccc2C[C@H]1C(N)=O [Peptide 4, Octanoyl-His-DPhe-Arg-Tic-NH2] (Octanoyl-H[dF]R[Tic]-NH2)	0.27 ± 0.02 µM	−20	0.0074 ± 0.0021 µM	–	6.9 ± 0.4 µM	12	–	1.7 ± 0.3 µM	decreased potencies	120	50	50 fold	–	–	–	–
CCCCCCCC(=O)N[C@@H](Cc1c[nH]cn1)C(=O)N[C@H](Cc1ccccc1)C(=O)N[C@@H](CCCNC(=N)N)C(=O)N[C@@H](Cc1ccccc1)C(N)=O [Peptide 5, Octanoyl-His-DPhe-Arg-Phe-NH2] (Octanoyl-H[dF]RF-NH2)	0.026 ± 0.003 µM	−7	0.0194 ± 0.0021 µM	–	0.29 ± 0.06 µM	–	–	0.11 ± 0.01 µM	decreased potencies	8	5	–	–	–	–	–
CCCCCCCC(=O)N[C@H](Cc1c[nH]cn1)C(=O)N[C@H](Cc1ccccc1)C(=O)N[C@@H](CCCNC(=N)N)C(=O)N[C@@H](Cc1c[nH]c2ccccc12)C(N)=O [Peptide 9, Octanoyl-DHis-DPhe-Arg-Trp-NH2]	0.29 ± 0.04 µM	–	0.23 ± 0.03 µM	–	4.2 ± 0.8 µM	7	–	0.34 ± 0.03 µM	decreased potencies	25	55	55 fold	–	–	–	–
CCCCCCCC(=O)N[C@@H](Cc1c[nH]c2ccccc12)C(=O)N[C@H](Cc1ccccc1)C(=O)N[C@@H](CCCNC(=N)N)C(=O)N[C@@H](Cc1c[nH]c2ccccc12)C(N)=O [Peptide 10, Octanoyl-Trp-DPhe-Arg-Trp-NH2] (Octanoyl-W[dF]RW-NH2)	0.058 ± 0.007 µM	–	0.21 ± 0.03 µM	–	–	–	–	0.18 ± 0.04 µM	decreased potencies	13	11	–	equipotent	50%−65%	–	–
CC(=O)N[C@@H](Cc1c[nH]c2ccccc12)C(=O)N[C@H](Cc1cccc2ccccc12)C(=O)N[C@@H](CCCNC(=N)N)C(=O)N[C@@H](Cc1c[nH]c2ccccc12)C(N)=O [Peptide 19, Ac-Trp-DNal(1’)-Arg-Trp-NH2] (Ac-W[d1Nal]RW-NH2)	3.9 ± 2.2 µM	70	9.7 ± 4.7 µM	–	> 100 µM	–	–	12 ± 4 µM	–	870	725	–	–	–	–	–
CC(=O)N[C@@H](Cc1ccccc1)C(=O)N[C@H](Cc1ccc(-c2ccccc2)cc1)C(=O)N[C@@H](CCCNC(=N)N)C(=O)N[C@@H](Cc1c[nH]c2ccccc12)C(N)=O [Peptide 20, Ac-Phe-DBip-Arg-Trp-NH2] (Ac-F[dBip]RW-NH2)	0.5 ± 0.07 µM	71	10 ± 4.9 µM	–	> 100 µM	–	–	5.4 ± 1.6 µM	–	395	94	–	–	–	–	–
CC(=O)N[C@@H](Cc1ccccc1)C(=O)N[C@H](Cc1cccc2ccccc12)C(=O)N[C@@H](CCCNC(=N)N)C(=O)N[C@@H](Cc1c[nH]c2ccccc12)C(N)=O [Peptide 21, Ac-Phe-DNal(1’)-Arg-Trp-NH2] (Ac-F[d1Nal]RW-NH2)	3.8 ± 2.1 µM	28	3.9 ± 1.9 µM	–	> 100 µM	–	–	2.8 ± 1 µM	–	205	720	–	–	–	–	–
CC(=O)N[C@@H](Cc1cccnc1)C(=O)N[C@H](Cc1ccccc1)C(=O)N[C@@H](CCCNC(=N)N)C(=O)N[C@@H](Cc1ccc2ccccc2c1)C(N)=O [Peptide 23, Ac-3PAL-DPhe-Arg-Nal(2’)-NH2] (Ac-[3Pal][dF]R[2Nal]-NH2)	0.24 ± 0.05 µM	14	1.9 ± 0.6 µM	–	> 100 µM	–	–	0.11 ± 0.02 µM	–	8	45	–	–	–	14 fold	8 fold
CC(=O)N[C@@H](Cc1c[nH]c2ccccc12)C(=O)N[C@H](Cc1ccccc1)C(=O)N[C@@H](CCCNC(=N)N)C(=O)N[C@@H](Cc1cccc2ccccc12)C(N)=O [Peptide 24, Ac-Trp-DPhe-Arg-Nal(1’)-NH2] (Ac-W[dF]R[1Nal]-NH2)	3 ± 1.2 µM	23	3.3 ± 1.2 µM	–	–	–	–	1.1 ± 0.3 µM	–	77	566	–	–	50%	–	–
CC(=O)N[C@@H](Cc1c[nH]c2ccccc12)C(=O)N[C@H](Cc1ccccc1)C(=O)N[C@@H](CCCNC(=N)N)C(=O)N[C@@H](Cc1csc2ccccc12)C(N)=O [Peptide 25, Ac-Trp-DPhe-Arg-3Bal-NH2] (Ac-W[dF]R[Bta]-NH2)	4.8 ± 1.7 µM	57	8 ± 3 µM	–	> 100 µM	–	–	7.9 ± 2.4 µM	–	576	905	approximately 1000 fold	–	–	–	580 fold
CC(=O)N[C@@H](Cc1c[nH]c2ccccc12)C(=O)N[C@H](Cc1ccccc1)C(=O)N[C@@H](CCCNC(=N)N)C(=O)N[C@H](Cc1ccc2ccccc2c1)C(N)=O [Peptide 26, Ac-Trp-DPhe-Arg-DNal(2’)-NH2] (Ac-W[dF]R[d2Nal]-NH2)	5.8 ± 0.6 µM	167	23 ± 7 µM	–	> 100 µM	–	–	4.3 ± 0.8 µM	–	310	1094	approximately 1000 fold	–	–	> 160 fold	–
CC(=O)N[C@@H](Cc1cccs1)C(=O)N[C@H](Cc1ccccc1)C(=O)N[C@@H](CCCNC(=N)N)C(=O)N[C@@H](Cc1csc2ccccc12)C(N)=O [Peptide 27, Ac-2Thi-DPhe-Arg-3Bal-NH2] (Ac-[2Thi][dF]R[Bta]-NH2)	0.97 ± 0.29 µM	45	6.4 ± 1.6 µM	–	> 100 µM	–	–	1.3 ± 0.3 µM	–	91	183	–	–	–	–	–
